According to US20140357512A1, “HISTONE DEACETYLASE (HDAC) BIOMARKERS IN MULTIPLE MYELOMA” (priority 2013, published 2014):

System: human myeloma cell line MM.1S
Assay: SILAC acetylated-lysine peptide profiling, HDAC inhibitor vs DMSO (light/heavy ratio)
Format: cell-based
Description: An embodiment of the invention comprises utilizing the SILAC method in order to quantitate changes in protein expression between two or more populations of cells. The SILAC method is a technique based on mass spectrometry that detects differences in protein abundance among samples using non-radioactive isotopic labeling. The SILAC method is known in the art, and described in detail in Ong et al., “Stable Isotope Labeling by Amino Acids in Cell Culture, SILAC, as a Simple and Accurate Approach to Expression Proteomics”, Molecular & Cellular Proteomics, vol. 1, pp. 376-386 (2002), which is incorporated herein by reference in its entirety.
Briefly, the SILAC method involves growing two populations of cells in cell culture. The first population of cells is grown in growth media containing normal amino acids (“normal media”). The second population of cells is grown in media lacking a standard essential amino acid (such as lysine), but is then supplemented with a non-radioactive, isotopically labeled form of that essential amino acid (such as lysine labeled with ^13C atoms, rather than normal ^12C atoms), which is called “heavy media”. When the two populations of cells are each growing in the medium, they incorporate the amino acids into all of their proteins. The growth of cells maintained in the heavy media is no different from that in normal media. All peptides containing the heavy amino acids are heavier than their normal counterparts. The cells from each of the two populations of cells are lysed. The lysates from each of the two cell populations are then combined. The combined cell lysates are then analyzed by mass spectrometry. Pairs of chemically identical peptides of different stable isotope composition can be differentiated in a mass spectrometer due to their difference in mass. The ratio of peak intensities in the mass spectrum for such peptide pairs reflects the abundance ratio for the two proteins.
This example describes SILAC studies that were performed to compare the effects of three different HDAC inhibitors (Compound A, Compound B, and tubastatin A) to a control on a human multiple myeloma cell line. The HDAC inhibitors were also compared amongst themselves to determine differences in their effects.
A human myeloma cell line MM.1S was grown using either ^12C (light) or ^13C (heavy) lysine containing culture medium. The “heavy” cells were treated with DMSO as the control, and the “light” cells were treated with a single HDAC inhibitor at 37° C. for 6 hours. The heavy and light cells were lysed, and the lysates were mixed in 1:1 ratio and digested with the protease trypsin. The acetylated lysine containing peptides (due to the action of the HDAC inhibitor) in the digested peptide pool were captured by a non-specific anti-acetylated lysine antibody cocktail (the antibodies identify both light and heavy acetylated peptides), and subjected to mass spectrometry analysis in order to identify thousands of individual peptides.
Thousands of peptides were identified in pairs (^12C and ^13C) due to their known mass differences. The amino acid sequence and quantitative ratio (Light/Heavy) of a given peptide in two differentially treated cell lysates were then determined and annotated with their possible protein (gene) sources.
As stated above, three HDAC inhibitors (Compound A, Compound B, and Tubastatin A) were used. Thus, the SILAC method was performed three times, with a different HDAC inhibitor compared to a control each time. Accordingly, there are three pairs of quantitative data in the table below, i.e., Compound A:DMSO, Compound B:DMSO, and Tubastatin A:DMSO. A cut-off of 1.30 fold of change (increase or decrease) was then used to determine “changed” or “+” in the table, and any peptides with a fold of change less than 1.3 fold were determined to be “unchanged” or “0” in the table. Those peptides that were not identified were marked as “NA” in the table. […]

## O=C(CCCCCCNC(=O)c1cnc(N(c2ccccc2)c2ccccc2)nc1)NO [Compound A, 2-(diphenylamino)-N-(7-(hydroxyamino)-7-oxoheptyl)pyrimidine-5-carboxamide]
Glyceraldehyde-3-phosphate dehydrogenase [263], gene GAPDH, inhibitor:DMSO
  light to heavy ratio (L/H ratio) of acetylated peptide VVK(ac)QASEGPLK (SEQ ID NO: 597): 0.45 log 2
Glycyl-tRNA synthetase [224], gene GARS, inhibitor:DMSO
  light to heavy ratio (L/H ratio) of acetylated peptide AHLQK(ac)LMSDK (SEQ ID NO: 549): 0.39 log 2
Guanine nucleotide-binding protein G(olf) subunit alpha [55], gene GNAL, drug:DMSO
  light to heavy ratio (L/H ratio), log 2 scale, acetylated peptide LLLLGAGESGK(ac)STIVK (SEQ ID NO: 769): 0.97
H2AFV [5:8], log 2 scale, drug vs DMSO
  L/H ratio of acetylated peptide AGGK(ac)AGK(ac)DSGK (SEQ ID NO: 15): 1.00
H(+)/CI(−) exchange transporter 5 [587], gene CLCN5, inhibitor:DMSO
  light to heavy ratio (L/H ratio) of acetylated peptide TLAMDVMK(ac)PR (SEQ ID NO: 501): −0.76 log 2
H/ACA ribonucleoprotein complex subunit 3 [40], gene NOP10, inhibitor:DMSO
  light to heavy ratio (L/H ratio) of acetylated peptide FSPDDK(ac)YSR (SEQ ID NO: 504): −0.68 log 2
HADHA [406], log 2 scale, drug vs DMSO
  L/H ratio of acetylated peptide GQQQVFK(ac)GLNDK (SEQ ID NO: 41): 0.00
HGMK(ac)VVLISR (SEQ ID NO: 494), Estradiol 17-beta-dehydrogenase 12 [76], HSD17B12
  L/H ratio of acetylated peptide: −1.00 log 2
HIST1H2BO [6:12], log 2 scale, drug vs DMSO
  L/H ratio of acetylated peptide PDPAK(ac)SAPAPK(ac)K (SEQ ID NO: 16): 1.00
HLA-B associated transcript 1 [188], gene SNORD84, DDX39B, inhibitor:DMSO
  light to heavy ratio (L/H ratio) of acetylated peptide SLNLK(ac)HIK (SEQ ID NO: 607): 0.46 log 2
HMGB2 [30], log 2 scale, drug vs DMSO
  L/H ratio of acetylated peptide K(ac)[…] (SEQ ID NO: 42): 0.00
HNRNPA3 [29], log 2 scale, drug vs DMSO
  L/H ratio of acetylated peptide RGEEGHDPK(ac)EPEQLR (SEQ ID NO: 43): 0.00
HNRNPM [83], log 2 scale, drug vs DMSO
  L/H ratio of acetylated peptide […](ac)WQSLK (SEQ ID NO: 44): 0.00
HNRNPM [134], log 2 scale, drug vs DMSO
  L/H ratio of acetylated peptide AAEVLNK(ac)HSLSGRPLK (SEQ ID NO: 3): 0.00
HNRNPR [341], log 2 scale, drug vs DMSO
  L/H ratio of acetylated peptide VK(ac)VLFVR (SEQ ID NO: 45): 0.00
HNRNPU [246], log 2 scale, drug vs DMSO
  L/H ratio of acetylated peptide […](ac)YSR (SEQ ID NO: 46): 0.00
HNRNPU [497], log 2 scale, drug vs DMSO
  L/H ratio of acetylated peptide TTWVTK(ac)HAAENPGK (SEQ ID NO: 47): 0.00
HSP90B1 [97], log 2 scale, drug vs DMSO
  L/H ratio of acetylated peptide NK(ac)EIFLR (SEQ ID NO: 52): 0.00
HSP90B1 [114], log 2 scale, drug vs DMSO
  L/H ratio of acetylated peptide […](ac)IR (SEQ ID NO: 49): 0.00
HSP90B1 [161], log 2 scale, drug vs DMSO
  L/H ratio of acetylated peptide EELVK(ac)NLGTIAK (SEQ ID NO: 48): 0.00
HSP90B1 [455], log 2 scale, drug vs DMSO
  L/H ratio of acetylated peptide ETLQQHK(ac)LLK (SEQ ID NO: 50): 0.00
HSP90B1 [479], log 2 scale, drug vs DMSO
  L/H ratio of acetylated peptide IADDK(ac)YNDTFWK (SEQ ID NO: 51): 0.00
HSPA5 [96], log 2 scale, drug vs DMSO
  L/H ratio of acetylated peptide […](ac)R (SEQ ID NO: 54): 0.00
HSPA5 [213], log 2 scale, drug vs DMSO
  L/H ratio of acetylated peptide […](ac)R (SEQ ID NO: 53): 0.00
HSPA8 [71], log 2 scale, drug vs DMSO
  L/H ratio of acetylated peptide […](ac)R (SEQ ID NO: 55): 0.00
Heat shock 70 kDa protein 1A/1B [71], HSPA1B, HSPA1A, drug:DMSO
  light to heavy ratio (L/H ratio) of acetylated peptide […](ac)R (SEQ ID NO: 267): 0.44 log 2
Heterogeneous nuclear ribonucleoprotein F [98], gene HNRNPF, drug:DMSO
  light to heavy ratio (L/H ratio), log 2 scale, acetylated peptide TEMDWVLK(ac)[…] (SEQ ID NO: 797): 1.00
Heterogeneous nuclear ribonucleoprotein U-like protein 2 [553], gene HNRNPUL2, inhibitor:DMSO
  light to heavy ratio (L/H ratio) of acetylated peptide LLLFK(ac)TFSR (SEQ ID NO: 514): −0.57 log 2
High mobility group protein B2 [157], gene HMGB2, inhibitor:DMSO
  light to heavy ratio (L/H ratio) of acetylated peptide YEK(ac)DIAAYR (SEQ ID NO: 595): 0.45 log 2
Histone H2A.V [8:12], gene H2AFV, drug:DMSO
  light to heavy ratio (L/H ratio), log 2 scale, acetylated peptide AGK(ac)DSGK(ac)AK (SEQ ID NO: 786): 1.00
Histone H2B type 1-B [16:17], gene HIST1H2BB, drug:DMSO
  light to heavy ratio (L/H ratio), log 2 scale, acetylated peptide GSK(ac)K(ac)AITK (SEQ ID NO: 790): 1.00
Histone H2B type 1-D [6:12], gene HIST1H2BD, drug:DMSO
  light to heavy ratio (L/H ratio), log 2 scale, acetylated peptide PEPTK(ac)SAPAPK(ac)K (SEQ ID NO: 791): 1.00
Histone H2B type 1-M [16:17], gene HIST1H2BM, drug:DMSO
  light to heavy ratio (L/H ratio), log 2 scale, acetylated peptide GSK(ac)K(ac)AINK (SEQ ID NO: 792): 1.00
Histone H2B type 1-M [17:21], gene HIST1H2BM, drug:DMSO
  light to heavy ratio (L/H ratio), log 2 scale, acetylated peptide K(ac)AINK(ac)AQK (SEQ ID NO: 793): 1.00
Histone H2B type 2-E [6:12], HIST2H2BE, drug:DMSO
  light to heavy ratio (L/H ratio) of acetylated peptide PEPAK(ac)SAPAPK(ac)K (SEQ ID NO: 309): 1.00 log 2
